Source: patent US11414454B2, “Compositions, methods, and systems for affinity-based protein identification and purification” (Auctus Biologies, Inc., priority 2017, dated 2022)
No end group written: not given here.

Tests used:
RPtag(large) = assay: pH profile of Kd by fluorescence anisotropy; assay type: binding, Thermoanaerobacter tengcongensis; settings: buffers pH 1.5 to 13
Experimental: The Kds of Nd8,Cd4 for RPtag(large) was measured in the presence of buffers of different pHs ranging from 1.5 to 13.
For these experiments, Kds were measured by fluorescence anisotropy as described above in the following buffers, all at 100 mM with 0.005% Tween 20: glycine pH 1.5, glycine pH 2.0, glycine pH 3.0, acetate pH 4.5, 2-(N-morpholino)ethanesulfonic acid pH 6.0, tris pH 7.0, tris pH 7.5, tris pH 8.0, tris pH 8.5, borate pH 10.0, phosphate pH 11.5, phosphate pH 13.0.

RPtag (large) [1] = assay: Buffer additive screen, Kd by fluorescence anisotropy; assay type: binding, Thermoanaerobacter tengcongensis
Experimental: To determine reagent compatibility with the disclosed system, an additive screen was performed, wherein the Kd between RPtag (large) and 3 RPtag (small) peptides—native, Nd8Cd4, and Nd2p5ae18a—were tested in the presence of several common buffer additives (Table 3).

[2] = tested on: immobilized RPtag(large) column; assay: Native elution from immobilized RPtag(large) column (3 M NaCl binding, 3 M imidazole elution); set-up: species or system Thermoanaerobacter tengcongensis; settings: bound in 100 mM Tris pH 8.0, 3 M NaCl, 0.005% Tween20
Description: Because of the observed stabilizing character of NaCl and destabilizing character of imidazole on Nd8Cd4 binding, these reagents, among others, were incorporated into a novel buffering system for use with the disclosed proteins, peptides, systems, and methods. In particular, the effect of this novel buffer on binding of RPtag (small) Nd8Cd4 to an immobilized RPtag(large) column was studied. These experiments included eluting both (1) rhodamine labeled peptide and (2) N-terminally RPtag(small) Nd8Cd4 tagged with tagRFP from a column under native conditions. Generally, native conditions is taken to mean at or near biological conditions under which many proteins are folded, e.g. pH 4-9 at moderate temperature (4° C.-30° C.) in the absence of denaturants (e.g. guanidine hydrochloride, urea, SDS). This is in contrast to denaturing conditions, which generally rely on extreme pH (e.g. ≤2) denaturants, or high temperature to unfold proteins.
Briefly, columns, as described above, were first equilibrated with 10 mL 100 mM Tris pH 8.0, 3 M NaCl, 0.005% Tween20. Next, 1 mL of 10 uM rhodamine-tagged Nd8Cd4 or tagRFP containing an N-terminal RPtag (small) Nd8Cd4 tag was applied in the same buffer. The column was then washed with 10 mL of the same buffer. Finally, bound target molecules were eluted with 10 mL of 100 mM Tris pH 8.0, 3 M imidazole, 0.005% Tween20.

RPtag (large) [3] = assay: Association/dissociation kinetics of RPtag (small) peptides with RPtag (large) by fluorescence anisotropy; assay type: binding, Thermoanaerobacter tengcongensis; settings: for koff: LS dissociation, unlabeled competitor peptide
Method in brief: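 Rhodamine-labeled RPtag small incubated with unlabeled RPtag large; binding followed by fluorescence anisotropy and converted to complex concentration. For dissociation, 1000 nM RPtag large complex chased with 0.1 mM unlabeled native or Nd2,P5A,E18A peptide; koff from initial rates or single-exponential fits, kon derived from koff and Kd.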

[4] = 100 mM Tris pH 8.0, 0.005% Tween 20, No Additive

Sequence | pH of relative maximum affinity (RPtag(large)) | Kd (RPtag (large) [1]; [4]) | Kd (RPtag (large) [1]; BME (10%)) | Kd (RPtag (large) [1]; CaCl2 (3M)) | Kd (RPtag (large) [1]; DMSO (20%)) | Kd (RPtag (large) [1]; DTT (100 mM)) | Kd (RPtag (large) [1]; EtOH (20%)) | Kd (RPtag (large) [1]; Gdn-HCl (6M)) | Kd (RPtag (large) [1]; KCl (3M)) | Kd (RPtag (large) [1]; MeOH (20%)) | Kd (RPtag (large) [1]; MgCl2 (3M)) | Kd (RPtag (large) [1]; MnSO4 (10 mM)) | Kd (RPtag (large) [1]; NH4SO4 (3M)) | Kd (RPtag (large) [1]; NaCl (3M)) | Kd (RPtag (large) [1]; NiCl2 (100 mM)) | Kd (RPtag (large) [1]; PG (50%)) | Kd (RPtag (large) [1]; SDS (2%)) | Kd (RPtag (large) [1]; TritonX-100 (2%)) | Kd (RPtag (large) [1]; Tween20 (2%)) | Kd (RPtag (large) [1]; acetone (20%)) | also measured
KIANFIPAELKLITKANVQ [Nd2, p5a, e18a, KIANFIPAELKLITKANVQ] | ~8 pH | 0.037 nM | 6.7 nM | 150 nM | 0.023 nM | 0.073 nM | 0.1 nM | > 10000 nM | 0.011 nM | 0.056 nM | 350 nM | 22 nM | 44 nM | < 0.001 nM | 2.2 nM | 49 nM | > 10000 nM | 0.046 nM | 4.7 nM | 0.019 nM | Kd (RPtag (large) [1]; glycerol (20%)): < 0.001 nM; Kd (RPtag (large) [1]; imidazole (3M)): > 10000 nM; Kd (RPtag (large) [1]; ribose (3M)): < 0.001 nM; Kd (RPtag (large) [1]; sorbitol (3M)): < 0.001 nM; Kd (RPtag (large) [1]; urea (8M)): > 10000 nM; elution behaviour with 100 mM Tris pH 8.0, 3 M imidazole [2]: diffuse band; koff (RPtag (large) [3]): 0.013 ± 0.001 min⁻¹; kf (RPtag (large) [3]; S to S* forward rate constant): 0.051 ± 0.001 min⁻¹; kr (RPtag (large) [3]; S* to S reverse rate constant, calculated from Keq and kf): 0.19 ± 0.02 min⁻¹; kon (M^−1 min^−1 ) (×10^7) (RPtag (large) [3]; S*-LS transition, calculated from measured koff and Kd): 28 ± 2 ×10^7 M^−1 min^−1
PAELKLITK [Nd8, Cd4, PAELKLITK] | ~8 pH | 14 nM | 740 nM | > 10000 nM | 140 nM | 33 nM | 733 nM | > 10000 nM | 0.066 nM | 34 nM | 240 nM | 160 nM | 2.8 nM | 0.15 nM | 42 nM | 4600 nM | > 10000 nM | 180 nM | 45 nM | 22 nM | increased affinity with kosmotropic salts NaCl and KCl (RPtag (large) [1]; 3M salt versus no additive): > 100 fold; Kd (RPtag (large) [1]; glycerol (20%)): 27 nM; Kd (RPtag (large) [1]; imidazole (3M)): > 10000 nM; Kd (RPtag (large) [1]; ribose (3M)): 42 nM; Kd (RPtag (large) [1]; sorbitol (3M)): 16 nM; Kd (RPtag (large) [1]; urea (8M)): > 10000 nM; elution behaviour with 100 mM Tris pH 8.0, 3 M imidazole [2]: eluted as a tight band; koff (RPtag (large) [3]): >2 min⁻¹; binding/unbinding kinetics (RPtag (large) [3]; instrument dead time ~1 min): completed within the dead time
